Results published in PubChem BioAssay AID248 (DTP/NCI, 2004).
Several values for one entry are separate records, joined by “and”; a condition that tells them apart may be missing. Identical values can stand only once. Inconclusive results and toxic doses are left out. Rule as the data show it: active = T/C of 150% or more; inactive = T/C below 125%.

System: L1210 leukemia ip in BDF1 mice, survival T/C
Test: NCI In Vivo Anticancer Drug Screen. Data for tumor model L1210 Leukemia (intraperitoneal) in B6D2F1 (BDF1) mice
Conditions: endpoint: mean survival time, higher = longer survival
Outline: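 In this screen, tumor-bearing mice given compound are compared to those given vehicle, and their survival values are reported as a treated-to-control quotient.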

[1] = dose: 100.0 mg/kg/injection, schedule: Q01DX001 (ip), vehicle: saline
[2] = dose: 200.0 mg/kg/injection, schedule: Q01DX001 (ip), vehicle: saline
[3] = dose: 400.0 mg/kg/injection, schedule: Q01DX001 (ip), vehicle: saline
[4] = dose: 50.0 mg/kg/injection, schedule: Q01DX009 (ip), vehicle: water
[5] = dose: 100.0 mg/kg/injection, schedule: Q01DX009 (ip), vehicle: water
[6] = dose: 100.0 mg/kg/injection, schedule: Q04DX003 (ip), vehicle: Klucel (hydroxypropylcellulose) (HPC)
[7] = dose: 200.0 mg/kg/injection, schedule: Q04DX003 (ip), vehicle: Klucel (hydroxypropylcellulose) (HPC)
[8] = dose: 400.0 mg/kg/injection, schedule: Q04DX003 (ip), vehicle: Klucel (hydroxypropylcellulose) (HPC)
[9] = dose: 25.0 mg/kg/injection, schedule: Q01DX009 (ip), vehicle: Klucel (hydroxypropylcellulose) (HPC)
[10] = dose: 50.0 mg/kg/injection, schedule: Q01DX009 (ip), vehicle: Klucel (hydroxypropylcellulose) (HPC)
[11] = dose: 100.0 mg/kg/injection, schedule: Q01DX009 (ip), vehicle: Klucel (hydroxypropylcellulose) (HPC)

Measured: T/C

CC1(C)CC2(CC3(C1)SCCS3)SCCS2
inactive: [1] 94 % of control | dose: 100.0 mg/kg/injection, schedule: Q04DX003 (ip), vehicle: acetone 89 % of control | [2] 97 % of control | dose: 200.0 mg/kg/injection, schedule: Q04DX003 (ip), vehicle: acetone 96 % of control | [3] 89 % of control | dose: 400.0 mg/kg/injection, schedule: Q04DX003 (ip), vehicle: acetone 91 % of control

O=C(c1cc(C(F)(F)F)cc(C(F)(F)F)c1)N1CC1
inactive: dose: 6.25 mg/kg/injection, schedule: Q01DX009 (ip), vehicle: water 96 % of control | dose: 12.5 mg/kg/injection, schedule: Q01DX009 (ip), vehicle: water 91 % of control | dose: 25.0 mg/kg/injection, schedule: Q01DX009 (ip), vehicle: water 95 % of control | [4] 93 % of control and 86 % of control | [5] 88 % of control | dose: 200.0 mg/kg/injection, schedule: Q01DX009 (ip), vehicle: water 95 % of control and 89 % of control | dose: 400.0 mg/kg/injection, schedule: Q01DX009 (ip), vehicle: water 86 % of control

CN(C)c1ccc(C=Nc2cc(Cl)ccc2Cl)cc1
inactive: [6] 89 % of control | [7] 88 % of control | [8] 89 % of control

S=C=Nc1cccc(N=C=S)c1
inactive: dose: 5.0 mg/kg/injection, schedule: Q01DX001 (ip), vehicle: acetone 105 % of control | dose: 10.0 mg/kg/injection, schedule: Q01DX001 (ip), vehicle: acetone 124 % of control | dose: 20.0 mg/kg/injection, schedule: Q01DX001 (ip), vehicle: acetone 100 % of control

NC(=O)NNC1=CC(=O)CCO1
inactive: [1] 107 % of control | [2] 106 % of control | [3] 104 % of control

COc1ccccc1-c1cn(O)c2nc(=N)nc(N)c-2n1
inactive: dose: 100.0 mg/kg/injection, schedule: Q04DX002 (ip), vehicle: saline 97 % of control | dose: 200.0 mg/kg/injection, schedule: Q04DX002 (ip), vehicle: saline 94 % of control | dose: 400.0 mg/kg/injection, schedule: Q04DX002 (ip), vehicle: saline 111 % of control

O=C1CN(CCl)C(=O)CN1CCl
inactive: [4] 100 % of control | [5] 101 % of control | dose: 100.0 mg/kg/injection, schedule: Q04DX003 (ip), vehicle: water 113 % of control | dose: 200.0 mg/kg/injection, schedule: Q04DX003 (ip), vehicle: water 110 % of control | dose: 400.0 mg/kg/injection, schedule: Q04DX003 (ip), vehicle: water 113 % of control

O=C(Nc1ccccc1)Nc1cc(Cl)ccc1Cl
inactive: dose: 25.0 mg/kg/injection, schedule: Q04DX002 (ip), vehicle: Klucel (hydroxypropylcellulose) (HPC) 107 % of control | dose: 50.0 mg/kg/injection, schedule: Q04DX002 (ip), vehicle: Klucel (hydroxypropylcellulose) (HPC) 90 % of control | dose: 100.0 mg/kg/injection, schedule: Q04DX002 (ip), vehicle: Klucel (hydroxypropylcellulose) (HPC) 90 % of control

O=[N+]([O-])/C=C\c1ccc2c(c1)OCO2
inactive: [9] 87 % of control and 103 % of control | [10] 89 % of control and 100 % of control | [1] 106 % of control | [11] 103 % of control | [6] 102 % of control | [2] 119 % of control | [7] 97 % of control | [3] 97 % of control

O=C(C[n+]1cccc(/C=N\O)c1)c1ccc(-c2ccc(C(=O)C[n+]3cccc(/C=N\O)c3)cc2)cc1
inactive: dose: 1.5 mg/kg/injection, schedule: Q01DX009 (ip), vehicle: Klucel (hydroxypropylcellulose) (HPC) 97 % of control | dose: 2.5 mg/kg/injection, schedule: Q01DX009 (ip), vehicle: Klucel (hydroxypropylcellulose) (HPC) 102 % of control | dose: 3.0 mg/kg/injection, schedule: Q01DX009 (ip), vehicle: Klucel (hydroxypropylcellulose) (HPC) 97 % of control | dose: 4.0 mg/kg/injection, schedule: Q01DX009 (ip), vehicle: Klucel (hydroxypropylcellulose) (HPC) 97 % of control | dose: 6.0 mg/kg/injection, schedule: Q01DX009 (ip), vehicle: Klucel (hydroxypropylcellulose) (HPC) 94 % of control and 102 % of control | dose: 9.0 mg/kg/injection, schedule: Q01DX009 (ip), vehicle: Klucel (hydroxypropylcellulose) (HPC) 92 % of control | dose: 12.0 mg/kg/injection, schedule: Q01DX009 (ip), vehicle: Klucel (hydroxypropylcellulose) (HPC) 98 % of control | dose: 12.5 mg/kg/injection, schedule: Q01DX009 (ip), vehicle: Klucel (hydroxypropylcellulose) (HPC) 111 % of control

N=C(N[N+](=O)[O-])N(CCC(=O)O)N=O
inactive: dose: 50.0 mg/kg/injection, schedule: Q01DX001 (ip), vehicle: saline 100 % of control | dose: 50.0 mg/kg/injection, schedule: Q01DX009 (ip), vehicle: saline 90 % of control | dose: 53.0 mg/kg/injection, schedule: Q01DX015 (ip), vehicle: saline 113 % of control | dose: 79.0 mg/kg/injection, schedule: Q01DX015 (ip), vehicle: saline 124 % of control | dose: 100.0 mg/kg/injection, schedule: Q01DX001 (ip), vehicle: other 97 % of control | [1] 107 % of control | dose: 100.0 mg/kg/injection, schedule: Q01DX009 (ip), vehicle: other 103 % of control | dose: 100.0 mg/kg/injection, schedule: Q01DX009 (ip), vehicle: saline 96 % of control | dose: 100.0 mg/kg/injection, schedule: Q04DX003 (ip), vehicle: saline 96 % of control | dose: 178.0 mg/kg/injection, schedule: Q01DX001 (ip), vehicle: saline 109 % of control and 122 % of control | dose: 178.0 mg/kg/injection, schedule: Q01DX015 (ip), vehicle: saline 116 % of control | dose: 200.0 mg/kg/injection, schedule: Q01DX001 (ip), vehicle: other 101 % of control | [2] 113 % of control | dose: 200.0 mg/kg/injection, schedule: Q01DX009 (ip), vehicle: other 98 % of control | dose: 200.0 mg/kg/injection, schedule: Q01DX009 (ip), vehicle: saline 104 % of control | dose: 200.0 mg/kg/injection, schedule: Q04DX003 (ip), vehicle: saline 98 % of control | dose: 267.0 mg/kg/injection, schedule: Q01DX001 (ip), vehicle: saline 112 % of control and 121 % of control | dose: 400.0 mg/kg/injection, schedule: Q01DX001 (ip), vehicle: other 100 % of control | dose: 400.0 mg/kg/injection, schedule: Q01DX009 (ip), vehicle: other 98 % of control | dose: 400.0 mg/kg/injection, schedule: Q01DX009 (ip), vehicle: saline 100 % of control | dose: 400.0 mg/kg/injection, schedule: Q04DX003 (ip), vehicle: saline 91 % of control | dose: 600.0 mg/kg/injection, schedule: Q01DX001 (ip), vehicle: other 94 % of control | dose: 800.0 mg/kg/injection, schedule: Q01DX001 (ip), vehicle: other 92 % of control | dose: 800.0 mg/kg/injection, schedule: Q01DX001 (ip), vehicle: saline 86 % of control

COc1cc(OC(=O)Nc2ccc([N+](=O)[O-])cc2OC)ccc1C=O
inactive: [9] 92 % of control | [10] 92 % of control | [11] 105 % of control and 88 % of control

Clc1ccc2c(c1)/C(=C/c1cccnc1)c1cc(Cl)cc(Cl)c1-2
inactive: [11] 93 % of control | [6] 88 % of control | dose: 200.0 mg/kg/injection, schedule: Q01DX001 (ip), vehicle: Klucel (hydroxypropylcellulose) (HPC) 94 % of control | dose: 200.0 mg/kg/injection, schedule: Q01DX009 (ip), vehicle: Klucel (hydroxypropylcellulose) (HPC) 90 % of control | [7] 95 % of control | dose: 400.0 mg/kg/injection, schedule: Q01DX001 (ip), vehicle: Klucel (hydroxypropylcellulose) (HPC) 90 % of control | [8] 88 % of control
